Consider two molecules from patent publication US20090054412A1, “Treatment of Sleep Disorders” (priority 2007, published 2009).

Test [1] has as its target T1, rat GABAA receptors α3β2γ2 (Rattus norvegicus, UniProt P18508+P20236).
T1 construct: expressed in transfected cells; host or cells: Xenopus laevis oocytes, cRNA microinjected
Briefly: Stimulation of GABA (EC3-5)-elicited currents in Xenopus oocytes, two-electrode voltage clamp, α3β2γ2. Format: cell-based. An excerpt: (§1) 7-Chloro-3-(5-dimethylaminomethyl-[1,2,4]oxadiazol-3-yl)-5methyl-4,5-dihydro-imidazol[1,5,-a][1,4]benzodiazepine-6-one was used to test the effects of the compound of formula (II): […]
(§2) Similar procedures were chosen as for the investigation of other GABAA receptor subunit specific substances (e.g., Baur et al., 2005; Mol. Pharmacol. 68, 787-792).
(§3) Lobes of the ovary containing the follicles were obtained by surgical procedures from female Xenopus laevis. Follicles were singled out using a platinum loop. Fifty nL of cRNA solution at a ratio of αx:β2:γ2 of 1:1:5 (3.3-10 nM αx (x=1,2,3,5); 3.3-10 nM β2; 16.7-50 nM γ2) (Boileau et al., 2002; Neuropharmacology 43, 695-700) were microinjected into Xenopus follicles. Several hours after microinjection the follicles were freed of follicular layers and adhering connective tissue by a collagenase/hypertonic shock procedure (Sigel, 1987; J. Physiol.(Land) 386, 73-90). Oocytes were kept at constant 18° C. until measurement (1-4 days) in a modified Barth solution (88 mM NaCl, 1 mM KCl, 2.4 mM NaHCO3, 10 mM Hepes-NaOH (pH 7.5), 0.82 mM MgSO4×7H2O, 0.34 mM Ca(NO3)2×4H2O, 0.41 mM CaCl2×2H2O, 100 U Penicillin/mL, 100 μg Streptomycin/mL, sterile filtered).
(§4) Currents were measured using a home-built amplifier in combination with a xy-recorder or were digitized using a MacLab/200 (AD Instruments) and stored on a computer. Xenopus oocytes were voltage clamped using the two-electrode voltage clamp technique (electrode resistance about 0.8 MΩ) at −80 mV. The medium contained 90 mM NaCl, 1 mM KCl, 1 mM MgCl2, 1 mM CaCl2, 10 mM Na-Hepes (pH 7.4) and 0.5% DMSO.
(§5) GABA was applied for 20-50 seconds without or in combination with other drugs and a washout period of 4 minutes was allowed to ensure full recovery from desensitization, which was experimentally determined. The perfusion solution (6 mL/min) was applied through a glass capillary with an inner diameter of 1.35 mm, the mouth of which was placed about 0.4 mm from the surface of the oocyte. The rate of solution change under our conditions has been estimated 70% within less than 0.5 s (Sigel et al., 1990; Neuron 5, 703-711). The entire perfusion system and the assay chamber were cleaned between drug applications by washing with DMSO.
(§6) Data is given as mean±SD, except in the figures where data is shown for clarity as mean±SEM. Current stimulation was calculated as follows: stimulation (%)=((I(GABA+modulator)−I(GABA))/I(GABA))×100%, where I is the current amplitude. Where indicated, the stimulation was standardized to the stimulation by 1 μM diazepam (100%). To obtain FIGS. 1-4, values for current stimulation obtained at a given concentration of modulator at a given subunit combination were averaged. The data points were fitted with the equation stimulation=efficacy/(1+(potency/concentration of modulator)). The values given in the Tables (Summary) are obtained by fitting individual curves and subsequently averaging efficacy and potency.
(§7) Concentration response curves were also performed with oocytes expressing α2β2γ2, α3β2γ2, or α5β2γ2, after establishing the optimal concentration range as indicated above. […] Averaged data of the individual curves summarizing the effects of the compound of formula (II) are shown below for unstandardized and standardized stimulation.
(§8) Concentration response curves were also performed with oocytes expressing α2β2γ2, α3β2γ2, or α5β2γ2.
(§9) Current stimulation by diazepam was determined in each batch of oocytes as follows. GABA (EC3-5) was applied until a stable response was obtained. Subsequently, GABA was applied in combination with 1 μM diazepam.

Test [2] addresses T2, rat GABAA receptors α1β2γ2 (Rattus norvegicus, UniProt P18508+P62813).
T2 construct: expressed in transfected cells; host or cells: Xenopus laevis oocytes, cRNA microinjected
Briefly: Stimulation of GABA (EC3-5)-elicited currents in Xenopus oocytes, two-electrode voltage clamp, α1β2γ2. Format: cell-based. The following applies: for Standardized Efficacy: standardized to stimulation by 1 μM diazepam (100%).
Excerpt: as §1, §2, §3, §4, §5, §6
GABA (EC3-5) was applied to an oocyte expressing α1β2γ2 GABAA receptors several times until the current response was stable. The GABA (EC3-5) refers to the effective concentration of GABA, which produces a response that is 3-5% of the maximal response to high concentrations of GABA. Such a low concentration of GABA is chosen in order to better see the potentiating effect of positive allosteric modulators.
GABA was then applied in combination with various concentrations of the compound of formula (II) between 0.3 nM and 3,000 nM to produce a cumulative concentration response curve. […] In each batch of oocytes the stimulation by 1 μM diazepam was determined in five ocytes, extent of stimulation averaged and defined as 100%. Where indicated, stimulation by the compound of formula (II) in each batch of ocytes was expressed as a percentage of this value in the corresponding batch.
GABA (EC3-5) was applied to an oocyte expressing α1β2γ2 GABAA receptors several times until the current response was stable.
On the technique in general: Two-electrode voltage clamp is typically applied to oocytes expressing channels or transporters.

A further test concerns GABAA receptors. The following applies: 20 mg, in man, PET; cited from earlier work.
Test [3] deals with T3, rat GABAA receptors α5β2γ2 (Rattus norvegicus, UniProt P18508+P19969).
T3 construct: expressed in transfected cells; host or cells: Xenopus laevis oocytes, cRNA microinjected
T3 sequence (P19969 32-464 limits assumed): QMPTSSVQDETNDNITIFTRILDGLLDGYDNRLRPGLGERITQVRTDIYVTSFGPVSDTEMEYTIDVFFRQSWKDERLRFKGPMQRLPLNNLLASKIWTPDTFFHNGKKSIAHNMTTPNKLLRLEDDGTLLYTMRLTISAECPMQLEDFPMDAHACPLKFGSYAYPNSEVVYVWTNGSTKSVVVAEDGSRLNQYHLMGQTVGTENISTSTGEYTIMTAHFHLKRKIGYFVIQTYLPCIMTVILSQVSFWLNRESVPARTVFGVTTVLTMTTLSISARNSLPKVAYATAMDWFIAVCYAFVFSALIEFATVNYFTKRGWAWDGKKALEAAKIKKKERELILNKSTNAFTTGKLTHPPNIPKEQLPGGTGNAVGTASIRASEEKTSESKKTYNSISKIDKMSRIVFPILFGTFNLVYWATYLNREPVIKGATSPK
T3 sequence (P63138 25-474 partner limits assumed): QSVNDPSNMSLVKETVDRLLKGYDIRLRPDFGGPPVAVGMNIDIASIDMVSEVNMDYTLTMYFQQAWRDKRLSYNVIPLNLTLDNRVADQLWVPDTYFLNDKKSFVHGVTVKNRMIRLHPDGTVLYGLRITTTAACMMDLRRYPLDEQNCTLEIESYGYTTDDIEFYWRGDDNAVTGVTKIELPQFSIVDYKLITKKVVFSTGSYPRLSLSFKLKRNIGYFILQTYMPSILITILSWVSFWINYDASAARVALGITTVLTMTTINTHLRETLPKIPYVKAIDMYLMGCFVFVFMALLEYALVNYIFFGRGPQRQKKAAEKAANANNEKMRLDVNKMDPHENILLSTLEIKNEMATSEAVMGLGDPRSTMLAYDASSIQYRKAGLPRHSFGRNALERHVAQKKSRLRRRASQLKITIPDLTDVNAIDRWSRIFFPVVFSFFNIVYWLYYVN
T3 sequence (P18508 39-466): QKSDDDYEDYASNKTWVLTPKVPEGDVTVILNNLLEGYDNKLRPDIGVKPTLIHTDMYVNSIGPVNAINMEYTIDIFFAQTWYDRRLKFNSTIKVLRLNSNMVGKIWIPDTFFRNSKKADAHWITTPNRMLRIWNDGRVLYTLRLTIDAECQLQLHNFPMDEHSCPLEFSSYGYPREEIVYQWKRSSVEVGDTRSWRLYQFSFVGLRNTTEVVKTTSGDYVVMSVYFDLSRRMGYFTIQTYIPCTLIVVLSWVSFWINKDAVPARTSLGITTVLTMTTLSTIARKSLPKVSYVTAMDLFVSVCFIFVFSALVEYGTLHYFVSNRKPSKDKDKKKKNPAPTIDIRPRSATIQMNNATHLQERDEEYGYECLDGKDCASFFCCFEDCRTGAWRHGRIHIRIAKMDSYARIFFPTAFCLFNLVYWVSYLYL
The experiment in a line: Stimulation of GABA (EC3-5)-elicited currents in Xenopus oocytes, two-electrode voltage clamp, α5β2γ2. Format: cell-based.
Excerpt: as §1, §2, §3, §4, §5, §6, §7, §8, §9

In test [4] the target is T4, rat GABAA receptors α2β2γ2 (Rattus norvegicus, UniProt P18508+P23576).
T4 construct: expressed in transfected cells; host or cells: Xenopus laevis oocytes, cRNA microinjected
T4 sequence (P23576 29-451): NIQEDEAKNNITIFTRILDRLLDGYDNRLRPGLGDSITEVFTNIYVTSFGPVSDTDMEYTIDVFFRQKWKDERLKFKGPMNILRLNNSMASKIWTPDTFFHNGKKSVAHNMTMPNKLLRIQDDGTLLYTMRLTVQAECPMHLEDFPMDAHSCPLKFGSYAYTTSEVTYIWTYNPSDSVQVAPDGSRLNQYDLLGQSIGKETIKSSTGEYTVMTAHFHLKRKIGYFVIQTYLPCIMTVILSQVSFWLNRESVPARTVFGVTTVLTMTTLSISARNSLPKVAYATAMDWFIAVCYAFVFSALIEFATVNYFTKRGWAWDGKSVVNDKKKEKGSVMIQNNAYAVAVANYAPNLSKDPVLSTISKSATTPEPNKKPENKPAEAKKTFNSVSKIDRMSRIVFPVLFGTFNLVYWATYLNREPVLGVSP
T4 sequence (P63138 25-474 partner limits assumed): as the sequence (P63138 25-474 partner limits assumed) above
T4 sequence (P18508 39-466): as the sequence (P18508 39-466) above
The experiment in a line: Stimulation of GABA (EC3-5)-elicited currents in Xenopus oocytes, two-electrode voltage clamp, α2β2γ2. The class given is cell-based.
Excerpt: as §1, §2, §3, §4, §5, §6, §7, §8, §9

The mark [5] stands for this setting: standardized to stimulation by 1 μM diazepam (100%).
The mark [6] stands for this setting: unstandardized current stimulation.
Where [7] appears, read: 1 μM, different batches of oocytes, n=5.

Where “and” joins values, the source holds several entries; their conditions need not be identical. Identical values can stand only once.

T2 sequence (P62813 28-455): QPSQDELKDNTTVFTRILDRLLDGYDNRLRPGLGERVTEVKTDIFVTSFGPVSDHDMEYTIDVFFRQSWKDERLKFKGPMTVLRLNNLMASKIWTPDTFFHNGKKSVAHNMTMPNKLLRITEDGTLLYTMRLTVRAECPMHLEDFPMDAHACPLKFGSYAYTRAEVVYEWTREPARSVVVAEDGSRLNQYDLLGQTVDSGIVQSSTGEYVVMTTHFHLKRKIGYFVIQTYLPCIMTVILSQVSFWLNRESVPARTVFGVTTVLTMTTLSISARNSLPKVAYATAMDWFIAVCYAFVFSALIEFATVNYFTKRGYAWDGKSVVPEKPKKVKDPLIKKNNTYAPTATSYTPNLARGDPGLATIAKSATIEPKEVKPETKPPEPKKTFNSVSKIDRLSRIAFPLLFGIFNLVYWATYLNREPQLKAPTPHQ
T2 sequence (P63138 25-474 partner limits assumed): as the sequence (P63138 25-474 partner limits assumed) above
T2 sequence (P18508 39-466): as the sequence (P18508 39-466) above
T1 sequence (P20236 29-493): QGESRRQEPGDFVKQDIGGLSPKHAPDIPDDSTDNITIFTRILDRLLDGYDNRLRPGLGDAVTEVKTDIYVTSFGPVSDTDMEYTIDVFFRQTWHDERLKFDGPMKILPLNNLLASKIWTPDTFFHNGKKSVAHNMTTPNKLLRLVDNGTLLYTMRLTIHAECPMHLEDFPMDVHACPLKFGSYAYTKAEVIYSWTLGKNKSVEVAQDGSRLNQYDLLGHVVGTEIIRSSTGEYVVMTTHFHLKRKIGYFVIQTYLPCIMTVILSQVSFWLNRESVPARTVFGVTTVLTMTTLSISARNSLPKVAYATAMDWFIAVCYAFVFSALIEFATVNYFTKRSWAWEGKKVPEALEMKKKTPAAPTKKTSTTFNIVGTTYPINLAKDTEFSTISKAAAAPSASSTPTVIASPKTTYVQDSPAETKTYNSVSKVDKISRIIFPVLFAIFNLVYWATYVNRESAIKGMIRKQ
T1 sequence (P63138 25-474 partner limits assumed): as the sequence (P63138 25-474 partner limits assumed) above
T1 sequence (P18508 39-466): as the sequence (P18508 39-466) above

As for `Cc1ccc(-c2nc3ccc(C)cn3c2CC(=O)N(C)C)cc1` [Zolpidem, zolpidem], the “Standardized Efficacy” value in test [1] (setting [5]) was 166 ± 88%; in test [2] (α1β2γ2), 215 ± 74%; in test [2] (α1β2γ2, listed as zolpidem), 215%; in test [3] (setting [5]), 16 ± 4%; in test [4] (setting [5]) it was 179 ± 23%. The Efficacy in test [1] (setting [6]) amounted to 691 ± 365%; in test [2] (α1β2γ2, unstandardized current stimulation), 429 ± 120%; in test [3] (setting [6]) it was 33 ± 12%; in test [4] (setting [6]), 484 ± 60%. For the same molecule, the “Intrinsic activity / type of allosteric modulation” value in test [2] (GABAA receptor benzodiazepine site, relative to diazepam) is recorded as “full agonist”. In addition, in test [2] (in comparison to α2β2γ2, α3β2γ2 and α5β2γ2), the Receptor subtype affinity result is “higher affinity at α1β2γ2 GABAA receptors”. Also, the receptor occupancy result with GABAA receptors was “about 20%”.
For the molecule `CN1C(=O)CN=C(c2ccccc2)c2cc(Cl)ccc21` [diazepam], the “Stimulation by 1 μM diazepam” value in test [1] (setting [7]) was 417+85% and 417+144%; in test [2] (α1β2γ2, 1 μM, different batches of oocytes, n=5) it was 223+28% and 178+20%; in test [3] (setting [7]) it was 237+97% and 160+4%; in test [4] (setting [7]), 264+61% and 280+71% and 318+62%.
